The values that follow come from US20260258084A1, “New Peptides as Selective IL-23 Receptor Antagonists” (Sanofi, priority 2022, published 2026).

The structures appear in SMILES notation. Values after ≈ are worked out from the molar mass of the structure shown. Like-named read-outs stand apart in the source and are kept apart here. Positions of bridges follow the written chain, without caps; N, C: chain ends. Non-standard residues stand in square brackets, D forms with d. Residues, ends and D or L forms follow the SMILES beside them. *: point of attachment. Trp(7-Me) = Cc1cccc2c(C[C@H](N)C(=O)O)c[nH]c12; 2Nal = N[C@@H](Cc1ccc2ccccc2c1)C(=O)O; 3Pal = N[C@@H](Cc1cccnc1)C(=O)O; Thp = NC1(C(=O)O)CCOCC1; Me2NCH2CH2 = CN(C)CC*; Aib = CC(C)(N)C(=O)O; Ava = NCCCCC(=O)O

In data set [1] the test system is IL-23 induced STAT3 signaling in HEK-Blue™ IL-23 cells. Kind of data set: IL-23 induced STAT3 signaling in HEK-Blue IL-23 cells (SEAP reporter). It counts as cell-based. The note with it: human IL23 0.25 ng/ml, read-out: pSTAT3. The method, boiled down:
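Secreted SEAP, read at OD 620-655 nm after 45 min QUANTI-Blue development, reports STAT3 activation. Beforehand, cells were exposed to peptide dilutions for 60 min at 37 °C and then to 0.25 ng/ml final human IL-23 overnight, at 10,000 cells/well.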

The target in data set [2] is T1, human interleukin-23 receptor (recombinant human IL-23R-Fc chimera) (Homo sapiens, UniProt Q5VWK5).
T1 construct: Fc (IgG Fc fusion)
The experiment in a line: Human ELISA IL23/IL23R (assay for specific human IL23R antagonists). The format is binding. The note with it: Table 10; read-out: Human ELISA IL23/IL23R IC50. The gist of the method:
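Competition format: peptide dilutions compete for IL23R-Fc chimera (0.1 μg/ml final, 60 min, room temperature) binding to immobilized human IL23 coated at […] overnight at 4 °C. Read-out is fluorogenic HRP signal from goat anti-hu-IgG1 detecting captured receptor.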
A general note: In an ELISA, binding on a coated surface is turned into a signal by an enzyme label.

A further data set has as its system T2, Pepsin.
T2 construct: purchased Merck Millipore
The experiment in a line: Protease stability in simulated gastric fluid (Pepsin-SGF, FaSSGF). It counts as in vitro ADME. The note with it: simulated gastric fluid with pepsin (Pepsin-SGF), 60 min, 1 μM peptide, 37° C., read-out: FaSSGF 60 (min), remaining percent of peptide. The gist of the method: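 LCMS/MS peak areas, normalised to the time-0 sample as 100%, give percent remaining. Conditions: 37° C incubation of 1 μM final peptide in simulated gastric fluid with pepsin; ethanol/0.1% HCOOH quench at 0, 60, 120, 240 min.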

Data set [3] can be described thus: Solubility testing of peptides at different pH. The note with it: target concentration 1 mg/ml, 2 hours agitation. The format is physicochemical. The method, boiled down:
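Four buffers were used: 50 mM HCl pH 1.2 and 50 mM phosphate at pH 6.5, 7.4 and 9.0, each receiving dried-down compound at a 1 mg/mL target. After 2 h gentle shaking and 0.45 μm filtration, UV peak areas were compared with a DMSO standard curve of known concentration, allowing for extinction coefficients.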

The test system of the next data set is Pancreatin. Kind of data set: Protease stability in simulated intestinal fluid (Pancreatin-SIF, FaSSIF). It counts as in vitro ADME. The note with it: 1 μM peptide, 37° C.; for remaining at 1 h, 1 µM: 60 min, read-out: FaSSIF 60 (min), remaining percent of peptide; for remaining at 2 h, 1 µM: 120 min, read-out: FaSSIF 120 (min), remaining percent of peptide; for remaining at 4 h, 1 µM: 240 min, read-out: FaSSIF 240 (min), remaining percent of peptide. The method, boiled down: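 LC-MS/MS peak areas at 0, 60, 120 and 240 min, normalised to time 0 as 100%, give percent remaining. Reactions used 1 μM final peptide at 37° C in pancreatin-SIF (1 mg pancreatin in 10 mL SIF concentrate) and were stopped with ethanol containing 0.1% HCOOH.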

[4] abbreviates: 50 mM HCl buffer, 50 mM HCl pH 1.2, read-out: Solubility Buffer pH 1.2.
The mark [5] stands for this setting: 50 mM phosphate buffer pH 6.5, read-out: Solubility Buffer pH 6.5.
[6] abbreviates: 50 mM phosphate buffer pH 7.4, read-out: Solubility Buffer pH 7.4.
Setting [7] is: 50 mM phosphate buffer pH 9.0, read-out: Solubility Buffer pH 9.0.

The term amount remaining denotes the share of the starting amount still present when the sample was taken. What is called solubility is the concentration that dissolves in the medium under given conditions. Take `C[C@@H](O)[C@@H]1NC(=O)[C@H](CC(N)=O)NC(=O)[C@@H]2CSSC[C@H](NC(=O)[C@H](CCC(N)=O)NC(=O)[C@H](Cc3c[nH]c4ccccc34)NC1=O)C(=O)N[C@@H](Cc1ccc(OCCN)cc1)C(=O)N[C@H](Cc1ccc3ccccc3c1)C(=O)NC(C)(C)C(=O)N[C@H](C(=O)N[C@@H](CC(N)=O)C(=O)N[C@@H](CC(N)=O)C(N)=O)CCC(=O)NCCCCC(=O)N2` [compound 5]: the values for the IC50 in data set [1] and in data set [2] were 9.66 nM and 0.61 nM, respectively. In addition, the share remaining at 1 h, 1 µM in the data set on Pepsin is 82%; with Pancreatin, 94%. Also, the solubility at 2 h was at least 1110 µg/mL in data set [3] (setting [4]), at least 1230 µg/mL in data set [3] (setting [5]) and at least 1230 µg/mL in data set [3] (setting [6]). In addition, in the data set with Pancreatin, the fraction remaining at 2 h, 1 µM is 86%. For the same molecule, the amount remaining at 4 h, 1 µM in the data set with Pancreatin is 64%.
Turning to `C[C@@H](O)[C@@H]1NC(=O)[C@H](CC(N)=O)NC(=O)[C@@H]2CSSC[C@H](NC(=O)[C@H](CCC(N)=O)NC(=O)[C@H](Cc3c[nH]c4ccccc34)NC1=O)C(=O)N[C@@H](Cc1ccc(OCCN(C)C)cc1)C(=O)N[C@H](Cc1ccc3ccccc3c1)C(=O)NC(C)(C)C(=O)N[C@H](C(=O)N[C@@H](CC(N)=O)C(=O)N[C@@H](CC(N)=O)C(N)=O)CCC(=O)NCCCCC(=O)N2` [compound 8], the IC50 in data set [1] was 5.54 nM; in data set [2], 0.24 nM. The results for the share remaining at 1 h, 1 µM in the data set with Pepsin and with Pancreatin were 92% and 97%, respectively. In addition, the solubility at 2 h was at least 990 µg/mL in data set [3] (setting [4]), at least 1000 µg/mL in data set [3] (setting [5]), at least 1020 µg/mL in data set [3] (setting [6]) and at least 1040 µg/mL in data set [3] (setting [7]). The fraction remaining at 2 h, 1 µM in the data set on Pancreatin was 91%. Moreover, the fraction remaining at 4 h, 1 µM in the data set with Pancreatin was 82%.
With `CC(=O)NCCCC[C@@H]1NC(=O)[C@H](Cc2c[nH]c3c(C)cccc23)NC(=O)[C@H]([C@@H](C)O)NC(=O)[C@H](CC(N)=O)NC(=O)[C@@H]2CSSC[C@H](NC1=O)C(=O)N[C@@H](Cc1ccc(OCCN(C)C)cc1)C(=O)N[C@@H](Cc1ccc3ccccc3c1)C(=O)NC1(CCOCC1)C(=O)N[C@H](C(=O)N[C@@H](CC(N)=O)C(=O)N[C@@H](Cc1c[nH]cn1)C(N)=O)CCC(=O)NCCCCC(=O)N2` [compound 21] ([Ava]CNT[Trp(7-Me)]K(Ac)CY(Me2NCH2CH2)[2Nal][Thp]ENH-NH2; disulfide 2-7; lactam N-11), the results for the IC50 in data set [1] and in data set [2] were 2.67 nM and 0.31 nM, respectively. The share remaining at 1 h, 1 µM in the data set with Pepsin is 91%; with Pancreatin, 89%. In addition, the solubility at 2 h in data set [3] (setting [4]) was at least 1080 µg/mL; in data set [3] (setting [5]) it was at least 1010 µg/mL; in data set [3] (setting [6]) it was at least 970 µg/mL; in data set [3] (setting [7]), 230 µg/mL (≈ 126 µM). For the same molecule, the share remaining at 2 h, 1 µM in the data set on Pancreatin is 77%. The amount remaining at 4 h, 1 µM in the data set on Pancreatin was 75%.
`CC[C@H](C)[C@H](NC(=O)[C@H](Cc1cccnc1)NC(=O)[C@H](CC(N)=O)NC(=O)[C@@H]1CCC(=O)NCCCCC(=O)N[C@H]2CSSC[C@H](NC(=O)[C@H](CCCCNC(C)=O)NC(=O)[C@H](Cc3c[nH]c4ccccc34)NC(=O)[C@H]([C@@H](C)O)NC(=O)[C@H](CC(N)=O)NC2=O)C(=O)N[C@@H](Cc2ccc(OCCN(C)C)cc2)C(=O)N[C@@H](Cc2ccc3ccccc3c2)C(=O)NC(C)(C)C(=O)N1)C(N)=O` [compound 37] ([Ava]CNTWK(Ac)CY(Me2NCH2CH2)[2Nal][Aib]EN[3Pal]I-NH2; disulfide 2-7; lactam N-11): the IC50 was 2 nM in data set [1] and 0.38 nM in data set [2]. Further, the share remaining at 1 h, 1 µM with Pepsin was 77%; with Pancreatin, 80%. Also, the solubility at 2 h is at least 890 µg/mL in data set [3] (setting [4]), at least 940 µg/mL in data set [3] (setting [5]), 590 µg/mL (≈ 311 µM) in data set [3] (setting [6]) and 90 µg/mL (≈ 47.5 µM) in data set [3] (setting [7]). Further, the fraction remaining at 2 h, 1 µM with Pancreatin was 79%. Further, in the data set on Pancreatin, the fraction remaining at 4 h, 1 µM was 63%.
